# In publication PMC6642116, “Structural and functional analyses of hepatitis B virus X protein BH3-like domain and Bcl-xL interaction” (Nature Communications, 2019):
# How the values were obtained:
# HBV in HepG2.2.15 cells = test: Inhibition of HBV in HepG2.2.15 cells by PEP-1 delivered peptides; type: cell-based; details: for HBV DNA: HepG2.2.15 culture medium, peptide via PEP-1, 48 h; for HBsAg in culture medium: HepG2.2.15, peptide via PEP-1, 48 h
# Procedure: (§1) Fig. 6 The HBx-aa118–127 peptide, but not ABT-263, inhibits HBV replication and transcription in HepG2.2.15 cells. a HepG2.2.15 cells were treated with 125, 250, 500, and 1000 nM of ABT-263 for 2 days. Cytoplasmic HBV viral particles were isolated and the viral DNA replication intermediates were quantified (Methods). The results represent the fold change of the replicative intermediates in HepG2.2.15 cells from the indicated treatments, compared with those without treatment. b HepG2.2.15 cells were treated with the indicated concentrations of ABT-263 for 2 days. The lysate was analyzed by immunoblotting using antibodies to caspase-3 (CASP3) and GAPDH (glyceraldehyde 3-phosphate dehydrogenase). c, d The HBx-aa113–135, HBx-aa118–127, or the control peptides were delivered into HepG2.2.15 cells using PEP-1 nanoparticles (Methods). The levels of HBV DNA (c) and the levels of HBV S-antigen (HBsAg) expression (d) in culture medium collected from HepG2.2.15 cells were measured (Methods). The results are shown as fold change compared to that of the control peptide. e–g HepG2-NTCP cells were transfected with HBx118–127 peptide with concentration of […], and 50 μg/ml or unrelated control peptide during HBV infection (multiplicity of infection (MOI) = 200), respectively. e HBV e-antigen (HBeAg), f HBV DNA, and g cell viability were measured at day 8 after HBV infection. Data shown represent mean ± SD. Significance is indicated on the top. Not significant (ns): *P < 0.05, **P < 0.01; two-tailed unpaired t tests (n = 3 biologically independent samples). Source data are provided as a Source Data file
# To evaluate the potential inhibitory effects of peptides on HBV replication and transcription in HepG2.2.15 cells, HepG2.2.15 cells were pre-seeded 24 h before peptides treatment. HBx-aa113–135, HBx-aa118–127, or control peptide was transfected through pep-1 carriers and incubated for additional 48 h without the removal of peptides. The culture media of HepG2.2.15 cells were then harvested for analysis.
# The levels of HBsAg, HBeAg, and HBcAg expression were measured by chemiluminescence, using Commercial Assay Kit (Wantai, Beijing, China). Northern blot analysis of HBV RNA, Southern blot analysis of HBV DNA, and real-time PCR quantification of HBV DNA are described in the Supplementary Methods.
# HepG2-NTCP cells = test: Cell viability (CCK8 assay) of HBV-infected HepG2-NTCP cells; type: cell-based; design: Cell viability: unit not given here; details: CCK8, unrelated control peptide, day 8
# Procedure: as §1
# HBx-aa118-127 peptide treatment.
# obvious cytotoxicity at concentrations between 12.5-200 µg/mL (Fig. 6g). Taken together, […]
substance,measurement,setting,value
"SSTTSTGPCKTCTTPAQGTSMFP-K-biotin [Control, equal-length unrelated control biotin-labeled peptide]",HBV DNA,HBV in HepG2.2.15 cells; replicate 1,0.944 fold-change to control
same,HBV DNA,HBV in HepG2.2.15 cells; replicate 2,1.019 fold-change to control
same,HBV DNA,HBV in HepG2.2.15 cells; replicate 3,1.037 fold-change to control
same,HBsAg in culture medium,HBV in HepG2.2.15 cells; replicate 1,1.097 fold-change to control
same,HBsAg in culture medium,HBV in HepG2.2.15 cells; replicate 2,0.872 fold-change to control
same,HBsAg in culture medium,HBV in HepG2.2.15 cells; replicate 3,1.030 fold-change to control
same,Cell viability,HepG2-NTCP cells; replicate 1,102.557
same,Cell viability,HepG2-NTCP cells; replicate 2,97.209
same,Cell viability,HepG2-NTCP cells; replicate 3,100.234
